Experimental data as given in the supplement of paper PMC10307832.

Tests used:
Assay in all cases: relative viability (nuclei count vs DMSO), 5 days (fraction); higher = more cells survive
Midostaurin + Decitabine = compound: CO[C@@H]1[C@H](N(C)C(=O)c2ccccc2)C[C@H]2O[C@]1(C)n1c3ccccc3c3c4c(c5c6ccccc6n2c5c31)C(=O)NC4 [Midostaurin] + Nc1ncn([C@H]2C[C@H](O)[C@@H](CO)O2)c(=O)n1 [Decitabine] (partner 2 µM)
In short: (§1)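 For relative viability, nuclei counts in treated wells were divided by those in vehicle wells. Lung cancer cell lines had been pin-tool dosed in 1536-well plates the day after seeding and cultured for 5 days, then fixed and stained in one step (final 0.05% Triton X-100, 1% formaldehyde, 1 ug/ml Hoechst) and imaged at 4×. Doses were one drug alone or a fixed anchor-drug dose plus five library-drug doses (not always all listed) in √10 steps, and values are duplicate-plate medians.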

Midostaurin + Dasatinib = compound: CO[C@@H]1[C@H](N(C)C(=O)c2ccccc2)C[C@H]2O[C@]1(C)n1c3ccccc3c3c4c(c5c6ccccc6n2c5c31)C(=O)NC4 [Midostaurin] + Cc1nc(Nc2ncc(C(=O)Nc3c(C)cccc3Cl)s2)cc(N2CCN(CCO)CC2)n1 [Dasatinib] (partner 0.075 µM)
In short: as §1

[1] = compound: COc1cc(-c2nn([C@H]3CC[C@H](N4CCN(C(C)=O)CC4)CC3)c3ncnc(N)c23)ccc1NC(=O)c1cc2ccccc2n1C + CC(=O)Nc1cccc(-n2c(=O)n(C3CC3)c(=O)c3c(Nc4ccc(I)cc4F)n(C)c(=O)c(C)c32)c1 [Trametinib] (partner 0.02 µM)
In short: as §1

Midostaurin + Crizotinib = compound: CO[C@@H]1[C@H](N(C)C(=O)c2ccccc2)C[C@H]2O[C@]1(C)n1c3ccccc3c3c4c(c5c6ccccc6n2c5c31)C(=O)NC4 [Midostaurin] + C[C@@H](Oc1cc(-c2cnn(C3CCNCC3)c2)cnc1N)c1c(Cl)ccc(F)c1Cl [Crizotinib] (partner 1 µM)
In short: as §1

Midostaurin + OSI-027 = compound: CO[C@@H]1[C@H](N(C)C(=O)c2ccccc2)C[C@H]2O[C@]1(C)n1c3ccccc3c3c4c(c5c6ccccc6n2c5c31)C(=O)NC4 [Midostaurin] + COc1cccc2cc(-c3nc([C@H]4CC[C@H](C(=O)O)CC4)n4ncnc(N)c34)[nH]c12 [OSI-027] (partner 0.5 µM)
In short: as §1

Cell Line	relative viability (Midostaurin + Decitabine; first compound 0.01 µM)	relative viability (Midostaurin + Decitabine; first compound 0.03162 µM)	relative viability (Midostaurin + Decitabine; first compound 0.1 µM)	relative viability (Midostaurin + Decitabine; first compound 0.3162 µM)	relative viability (Midostaurin + Dasatinib; first compound 0.01 µM)	relative viability (Midostaurin + Dasatinib; first compound 0.03162 µM)	relative viability (Midostaurin + Dasatinib; first compound 0.1 µM)	relative viability (Midostaurin + Dasatinib; first compound 0.3162 µM)	relative viability ([1]; first compound 0.0128 µM)	relative viability ([1]; first compound 0.04048 µM)	relative viability ([1]; first compound 0.128 µM)	relative viability ([1]; first compound 1.28 µM)	relative viability (Midostaurin + Crizotinib; first compound 0.01 µM)	relative viability (Midostaurin + Crizotinib; first compound 0.03162 µM)	relative viability (Midostaurin + Crizotinib; first compound 0.1 µM)	relative viability (Midostaurin + Crizotinib; first compound 0.3162 µM)	relative viability (Midostaurin + OSI-027; first compound 0.01 µM)	relative viability (Midostaurin + OSI-027; first compound 0.03162 µM)	relative viability (Midostaurin + OSI-027; first compound 0.1 µM)	relative viability (Midostaurin + OSI-027; first compound 0.3162 µM)
NCI-H1792	0.555	0.515	0.529	0.431	0.793	0.779	0.669	0.611	0.433	0.132	0.401	0.348	0.947	1.02	0.967	1.02	0.664	0.8	0.659	0.617
SK-LU-1	0.704	0.724	0.595	0.597	0.198	0.191	0.176	0.175	0.455	0.316	0.432	0.336	0.913	0.948	0.914	0.584	0.347	0.333	0.321	0.271
ChaGo-K-1	0.488	0.55	0.533	0.54	0.509	0.584	0.541	0.689	0.872	0.904	0.722	0.68	1.09	1.15	1.05	1.03	0.645	0.737	0.671	0.599
NCI-H1650	0.352	0.418	0.426	0.517	0.336	0.34	0.254	0.254	0.489	0.448	0.586	0.452	1.06	1.06	1.03	0.702	0.574	0.71	0.647	0.597
NCI-H2009	0.426	0.353	0.351	0.361	0.33	0.268	0.254	0.21	0.251	0.252	0.236	0.195	1.07	0.98	0.996	1.06	0.542	0.522	0.453	0.426
LOU-NH91	0.783	0.781	0.835	0.798	0.594	0.534	0.606	0.582	0.821	0.828	0.822	0.728	0.753	0.748	0.758	0.721	0.74	0.67	0.747	0.802
NCI-H2405	0.721	0.8	0.774	0.778	0.216	0.199	0.212	0.201	0.645	0.307	0.532	0.347	0.787	0.825	0.797	0.842	0.65	0.6	0.525	0.633
LCLC-97TM1	0.215	0.239	0.25	0.242	0.822	0.798	0.827	0.968	0.22	0.125	0.139	0.133	0.418		0.205	0.304	0.439	0.404	0.434	0.557
NCI-H596	1.1	1.11	1.07	1.12	0.661	0.662	0.646	0.729	0.915	0.8	0.88	0.554	0.957	1.12	1.11	1.1	0.727	0.774	0.598	0.904
NCI-H727	0.88	0.911	0.925	0.932	0.363	0.41	0.462	0.383	0.415		0.37	0.341	0.861	0.524	0.729	0.459	0.673	0.492	0.538	0.479
H3255	0.6	0.557	0.615	0.524	0.346	0.29	0.37	0.354	0.611	0.44	0.613	0.499	0.829	0.718	0.937	0.892	0.592	0.512	0.622	0.593
SK-MES-1	0.42	0.41	0.333	0.381	0.309	0.36	0.393	0.237	0.563	0.4	0.539	0.279	0.966	0.929	0.931	0.94	0.55	0.531	0.548	0.44
NCI-H1437	0.579	0.607	0.561	0.53	0.354	0.458	0.35	0.368	0.527	0.609	0.492	0.33	0.935	0.87	0.878	1	0.816	0.895	0.853	0.933
LU99A	0.912	0.948	0.657	0.594	0.434	0.549	0.541	0.348	0.578	0.288	0.529	0.489	0.603	0.634	0.541	0.533	0.279	0.309	0.258	0.277
HCC-827	0.303	0.318	0.356	0.349	0.417	0.441	0.386	0.341	0.574	0.341	0.525	0.286	0.856	0.844	0.858	0.905	0.719	0.708	0.821	0.8
